Test results as given in patent US20240270762A1, “PENICILLIN-BINDING PROTEIN INHIBITORS” (priority 2021, published 2024).
≈ marks a conversion by molar mass, not a printed value.

How the values were obtained:
[1] = test system: N. gonorrhoeae WHO Q; assay: Liquid broth MIC in Fastidious broth; settings: Neisseria gonorrhoeae, read-out: Minimum Inhibitory Concentration, WHO Q
[2] = test system: N. gonorrhoeae WHO K; assay: Liquid broth MIC in Fastidious broth; settings: Neisseria gonorrhoeae, read-out: Minimum Inhibitory Concentration, WHO K
[3] = test system: N. gonorrhoeae WHO L; assay: Liquid broth MIC in Fastidious broth; settings: Neisseria gonorrhoeae, read-out: Minimum Inhibitory Concentration, WHO L
[4] = target: T1, PBP1a from Acinetobacter baumannii (ATCC 19606) (Acinetobacter baumannii, UniProt A0ABX6CK30); assay: Bocillin-FL fluorescence polarization competition binding, A. baumannii PBP1a; settings: fluorescence polarization competition binding assay using Bocillin-FL; read-out: A. baumannii PBP1a Potency
T1 sequence (A0ABX6CK30 1-851): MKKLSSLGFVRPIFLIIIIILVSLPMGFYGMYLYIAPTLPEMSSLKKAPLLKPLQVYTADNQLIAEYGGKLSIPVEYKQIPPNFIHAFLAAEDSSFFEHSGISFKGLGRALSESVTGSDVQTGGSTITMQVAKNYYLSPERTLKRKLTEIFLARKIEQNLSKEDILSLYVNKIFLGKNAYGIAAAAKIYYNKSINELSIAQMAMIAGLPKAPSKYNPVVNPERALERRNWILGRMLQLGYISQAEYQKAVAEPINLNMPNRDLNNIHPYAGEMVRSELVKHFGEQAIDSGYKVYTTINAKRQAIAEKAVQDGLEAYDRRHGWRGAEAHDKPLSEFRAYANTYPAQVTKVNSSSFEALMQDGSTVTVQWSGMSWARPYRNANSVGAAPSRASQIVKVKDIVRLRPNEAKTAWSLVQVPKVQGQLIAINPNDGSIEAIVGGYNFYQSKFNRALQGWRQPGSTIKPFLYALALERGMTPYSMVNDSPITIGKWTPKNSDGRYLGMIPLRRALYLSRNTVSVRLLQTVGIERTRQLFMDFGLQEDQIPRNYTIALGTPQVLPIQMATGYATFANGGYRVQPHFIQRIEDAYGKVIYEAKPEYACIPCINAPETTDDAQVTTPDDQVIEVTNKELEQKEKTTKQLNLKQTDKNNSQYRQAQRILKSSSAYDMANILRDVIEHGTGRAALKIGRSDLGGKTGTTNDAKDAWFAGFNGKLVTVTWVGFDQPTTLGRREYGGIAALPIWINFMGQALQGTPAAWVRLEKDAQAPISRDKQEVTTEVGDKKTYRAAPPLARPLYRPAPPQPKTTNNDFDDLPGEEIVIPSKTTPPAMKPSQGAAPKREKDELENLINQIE
How it was run: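 Purified PBPs pre-incubated with inhibitor (E. coli PBP3 1.5 μM, 30 min; P. aeruginosa PBP3 0.75 μM, A. baumannii PBP1a 1 μM and PBP3 0.2 μM, 15 min), then Bocillin-FL 0.1 μM (0.05 μM for PBP1a) added; FP read up to 60 min. EC50 = concentration halving bound Bocillin-FL.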

[5] = test system: N. gonorrhoeae FA1090; assay: Liquid broth MIC in Fastidious broth; settings: Neisseria gonorrhoeae, FA1090, read-out: Minimum Inhibitory Concentration, FA 1090
Method: Additional antibacterial testing of the series was performed in 8 reference strains of N. gonorrhoeae (ATCC 49226, FA1090, MS 11, WHO G, WHO L, WHO M, WHO K, WHO X, WHO Z, WHO Q, CDC-0197). ATCC 49226, FA1090, MS11, WHO G, WHO L, and WHO M produce wild type or wild-type like PBP2. WHO K, WHO X, WHO Z, WHO Q, and CDC-0197 produce mosaic PBP2. Liquid broth-based assays were used for antibacterial testing of PBP inhibitors in Neisseria gonorrhoeae. Briefly, cryo-preserved bacterial cultures of clinical strains were streaked for isolation on Chocolate Agar (72 g/L (2×) GC Agar Base (BD #228950) and 2% (2×) Hemoglobin was autoclaved at 121° C. for 20 minutes to sterilize. Once cooled to ˜50° C. the 2×GC Agar Base and 2× Hemoglobin solutions are combined and 1% IsoVitaleX Enrichment (BD #211876) was added to the solution). Strains were incubated at 36° C. and 5% CO2 to allow growth of colonies, 24 hours before inoculum preparation. 2-fold serial dilutions of test compounds were conducted in a 96 well plate with a final volume of 75 μL per well at 2-fold the final desired concentration in Fastidious broth (Remel #R07664). For preparation of assay inoculum, a direct suspension was prepared by aseptically swabbing 10-15 colonies from agar plates into culture tubes containing 2 mL of fresh sterile saline. After the dilution plates were set up, direct suspensions were then diluted in a cuvette containing sterile saline and the optical density was measured at 600 nm. Inocula were diluted such that 75 μL of this culture in Fastidious broth results in a starting bacterial concentration of 5×10^5 CFU/mL when added to the dilution plates. The plates were incubated for ˜24 hours at 36° C. and 5% CO2.

[6] = test system: N. gonorrhoeae WHO Z; assay: Liquid broth MIC in Fastidious broth; settings: Neisseria gonorrhoeae, read-out: Minimum Inhibitory Concentration, WHO Z
[7] = test system: N. gonorrhoeae ATCC 49226; assay: Liquid broth MIC in Fastidious broth; settings: Neisseria gonorrhoeae, ATCC49226, read-out: Minimum Inhibitory Concentration, ATCC 49226
[8] = test system: N. gonorrhoeae WHO X; assay: Liquid broth MIC in Fastidious broth; settings: Neisseria gonorrhoeae, read-out: Minimum Inhibitory Concentration, WHO X

Row | SMILES | MIC [1] | MIC [2] | MIC [3] | IC50 [4] | MIC [5] | MIC [6] | MIC [7] | MIC [8]
1 | Cc1cc(C(=O)NCCCN2CCN(C(=O)NC(C(=O)N[C@H]3Cc4ccc(F)c(C(=O)O)c4OB3O)c3cc(F)c(O)c(O)c3Cl)C(=O)C2=O)c(F)cn1 (stereo partly drawn) [Example 301, (3R)-3-(2-(2-chloro-5-fluoro-3,4-dihydroxyphenyl)-2-(4-(3-(5-fluoro-2-methylisonicotinamido)propyl)-2,3-dioxopiperazine-1-carboxamido)acetamido)-7-fluoro-2-hydroxy-3,4-dihydro-2H-benzo[e][1,2]oxaborinine-8-carboxylic acid] | > 64 µg/mL | > 64 µg/mL | > 64 µg/mL | > 250 µM | 4 to 8 µg/mL (≈ 5.15 to 10.3 µM) | > 64 µg/mL | 16 to 32 µg/mL (≈ 20.6 to 41.2 µM) | > 64 µg/mL
2 | O=C(NCCCN1CCN(C(=O)NC(C(=O)N[C@H]2Cc3ccc(F)c(C(=O)O)c3OB2O)c2cc(F)c(O)c(O)c2Cl)C(=O)C1=O)c1ccc(O)c(Cl)c1 (stereo partly drawn) [Example 305, (3R)-3-(2-(4-(3-(3-chloro-4-hydroxybenzamido)propyl)-2,3-dioxopiperazine-1-carboxamido)-2-(2-chloro-5-fluoro-3,4-dihydroxyphenyl)acetamido)-7-fluoro-2-hydroxy-3,4-dihydro-2H-benzo[e][1,2]oxaborinine-8-carboxylic acid] | > 64 µg/mL | > 64 µg/mL | > 64 µg/mL | > 250 µM | 1 to 2 µg/mL (≈ 1.26 to 2.52 µM) | > 64 µg/mL | 16 to 32 µg/mL (≈ 20.1 to 40.3 µM) | > 64 µg/mL
3 | O=C(NCCS(=O)(=O)N1CCN(C(=O)NC(C(=O)N[C@H]2Cc3ccc(F)c(C(=O)O)c3OB2O)c2cc(F)c(O)c(O)c2Cl)C1=O)Nc1ccc(O)cc1 (stereo partly drawn) [Example 289, (3R)-3-(2-(2-chloro-5-fluoro-3,4-dihydroxyphenyl)-2-(3-((2-(3-(4-hydroxyphenyl)ureido)ethyl)sulfonyl)-2-oxoimidazolidine-1-carboxamido)acetamido)-7-fluoro-2-hydroxy-3,4-dihydro-2H-benzo[e][1,2]oxaborinine-8-carboxylic acid] | 4 to 8 µg/mL (≈ 5.02 to 10 µM) | 16 to 32 µg/mL (≈ 20.1 to 40.2 µM) | > 64 µg/mL | > 250 µM | 1 to 2 µg/mL (≈ 1.25 to 2.51 µM) | 4 to 8 µg/mL (≈ 5.02 to 10 µM) | 16 to 32 µg/mL (≈ 20.1 to 40.2 µM) | > 64 µg/mL
4 | O=C(NCCCN1CCN(C(=O)NC(C(=O)N[C@H]2Cc3ccc(F)c(C(=O)O)c3OB2O)c2cc(F)c(O)c(O)c2Cl)C1=O)c1cccnc1 (stereo partly drawn) [Example 281, (3R)-3-(2-(2-chloro-5-fluoro-3,4-dihydroxyphenyl)-2-(3-(3-(nicotinamido)propyl)-2-oxoimidazolidine-1-carboxamido)acetamido)-7-fluoro-2-hydroxy-3,4-dihydro-2H-benzo[e][1,2]oxaborinine-8-carboxylic acid] | > 64 µg/mL | > 64 µg/mL | > 64 µg/mL | > 250 µM | 4 to 8 µg/mL (≈ 5.58 to 11.2 µM) | 16 to 32 µg/mL (≈ 22.3 to 44.6 µM) | > 64 µg/mL | > 64 µg/mL
5 | O=C(NCCCS(=O)(=O)N1CCN(C(=O)NC(C(=O)N[C@H]2Cc3ccc(F)c(C(=O)O)c3OB2O)c2cc(F)c(O)c(O)c2Cl)C1=O)Nc1cccnc1 (stereo partly drawn) [Example 278, (3R)-3-(2-(2-chloro-5-fluoro-3,4-dihydroxyphenyl)-2-(2-oxo-3-((3-(3-(pyridin-3-yl)ureido)propyl)sulfonyl)imidazolidine-1-carboxamido)acetamido)-7-fluoro-2-hydroxy-3,4-dihydro-2H-benzo[e][1,2]oxaborinine-8-carboxylic acid] | 16 to 32 µg/mL (≈ 20.1 to 40.2 µM) | > 64 µg/mL | > 64 µg/mL | > 250 µM | 4 to 8 µg/mL (≈ 5.03 to 10.1 µM) | 16 to 32 µg/mL (≈ 20.1 to 40.2 µM) | 16 to 32 µg/mL (≈ 20.1 to 40.2 µM) | > 64 µg/mL
6 | Cc1cc(C(=O)NCCCN2CCN(C(=O)N[C@@H](C(=O)N[C@H]3Cc4ccc(F)c(C(=O)O)c4OB3O)c3cc(F)c(O)c(O)c3Cl)C(=O)C2=O)ccn1 [Example 298, (R)-3-((R)-2-(2-chloro-5-fluoro-3,4-dihydroxyphenyl)-2-(4-(3-(2-methylisonicotinamido)propyl)-2,3-dioxopiperazine-1-carboxamido)acetamido)-7-fluoro-2-hydroxy-3,4-dihydro-2H-benzo[e][1,2]oxaborinine-8-carboxylic acid] | > 64 µg/mL | > 64 µg/mL | > 64 µg/mL | > 250 µM | 1 to 2 µg/mL (≈ 1.32 to 2.64 µM) | > 64 µg/mL | 16 to 32 µg/mL (≈ 21.1 to 42.2 µM) | > 64 µg/mL
7 | O=C(NCCS(=O)(=O)N1CCN(C(=O)N[C@@H](C(=O)N[C@H]2Cc3ccc(F)c(C(=O)O)c3OB2O)c2cc(F)c(O)c(O)c2Cl)C1=O)Nc1ccncc1 [Example 290, (R)-3-((R)-2-(2-chloro-5-fluoro-3,4-dihydroxyphenyl)-2-(2-oxo-3-((2-(3-(pyridin-4-yl)ureido)ethyl)sulfonyl)imidazolidine-1-carboxamido)acetamido)-7-fluoro-2-hydroxy-3,4-dihydro-2H-benzo[e][1,2]oxaborinine-8-carboxylic acid] | 16 to 32 µg/mL (≈ 20.5 to 40.9 µM) | > 64 µg/mL | > 64 µg/mL | > 250 µM | 1 to 2 µg/mL (≈ 1.28 to 2.56 µM) | 4 to 8 µg/mL (≈ 5.12 to 10.2 µM) | 16 to 32 µg/mL (≈ 20.5 to 40.9 µM) | > 64 µg/mL
8 | Cc1cnccc1C(=O)NCCCN1CCN(C(=O)NC(C(=O)N[C@H]2Cc3ccc(F)c(C(=O)O)c3OB2O)c2cc(F)c(O)c(O)c2Cl)C(=O)C1=O (stereo partly drawn) [Example 297, (3R)-3-(2-(2-chloro-5-fluoro-3,4-dihydroxyphenyl)-2-(4-(3-(3-methylisonicotinamido)propyl)-2,3-dioxopiperazine-1-carboxamido)acetamido)-7-fluoro-2-hydroxy-3,4-dihydro-2H-benzo[e][1,2]oxaborinine-8-carboxylic acid] | > 64 µg/mL | > 64 µg/mL | > 64 µg/mL | > 250 µM | 1 to 2 µg/mL (≈ 1.32 to 2.64 µM) | > 64 µg/mL | 16 to 32 µg/mL (≈ 21.1 to 42.2 µM) | > 64 µg/mL
9 | O=C(NCCCN1CCN(C(=O)N[C@@H](C(=O)N[C@H]2Cc3ccc(F)c(C(=O)O)c3OB2O)c2cc(F)c(O)c(O)c2Cl)C1=O)Nc1ccc(O)cc1 [Example 284, (R)-3-((R)-2-(2-chloro-5-fluoro-3,4-dihydroxyphenyl)-2-(3-(3-(3-(4-hydroxyphenyl)ureido)propyl)-2-oxoimidazolidine-1-carboxamido)acetamido)-7-fluoro-2-hydroxy-3,4-dihydro-2H-benzo[e][1,2]oxaborinine-8-carboxylic acid] | 4 to 8 µg/mL (≈ 5.36 to 10.7 µM) | 16 to 32 µg/mL (≈ 21.4 to 42.8 µM) | 16 to 32 µg/mL (≈ 21.4 to 42.8 µM) | > 250 µM | 1 to 2 µg/mL (≈ 1.34 to 2.68 µM) | 4 to 8 µg/mL (≈ 5.36 to 10.7 µM) | 4 to 8 µg/mL (≈ 5.36 to 10.7 µM) | > 64 µg/mL
10 | O=C(NCCCN1CCN(C(=O)NC(C(=O)N[C@H]2Cc3ccc(F)c(C(=O)O)c3OB2O)c2cc(F)c(O)c(O)c2Cl)C1=O)Nc1ccncc1 (stereo partly drawn) [Example 285, (3R)-3-(2-(2-chloro-5-fluoro-3,4-dihydroxyphenyl)-2-(2-oxo-3-(3-(3-(pyridin-4-yl)ureido)propyl)imidazolidine-1-carboxamido)acetamido)-7-fluoro-2-hydroxy-3,4-dihydro-2H-benzo[e][1,2]oxaborinine-8-carboxylic acid] | > 64 µg/mL | > 64 µg/mL | > 64 µg/mL | > 250 µM | 4 to 8 µg/mL (≈ 5.47 to 10.9 µM) | > 64 µg/mL | > 64 µg/mL | > 64 µg/mL
11 | O=C(NCCCN1CCN(C(=O)N[C@@H](C(=O)N[C@H]2Cc3ccc(F)c(C(=O)O)c3OB2O)c2cc(F)c(O)c(O)c2Cl)C(=O)C1=O)c1cccc(O)c1Cl [Example 303, (R)-3-((R)-2-(4-(3-(2-chloro-3-hydroxybenzamido)propyl)-2,3-dioxopiperazine-1-carboxamido)-2-(2-chloro-5-fluoro-3,4-dihydroxyphenyl)acetamido)-7-fluoro-2-hydroxy-3,4-dihydro-2H-benzo[e][1,2]oxaborinine-8-carboxylic acid] | > 64 µg/mL | > 64 µg/mL | > 64 µg/mL | > 250 µM | 1 to 2 µg/mL (≈ 1.26 to 2.52 µM) | 16 to 32 µg/mL (≈ 20.1 to 40.3 µM) | 4 to 8 µg/mL (≈ 5.04 to 10.1 µM) | > 64 µg/mL
